According to patent publication US20250325684A1, “POTENT ANTI-CANCER CYCLOTIDES” (University of Southern California, priority 2022, published 2025):
“Also recorded” adds a separate entry of the source. Numbered stars: 1 amine (or outer) side, 2 acyl side, 3 side chain; on linkers, the order of the positions; unused ones are H or OH. Bridge positions count the residues as written; N and C are the ends. Square brackets hold non-standard residues; d marks the D form. I, II: the chains in the order shown. X1 = O=C(CCc1cn(CCOCCOCCOCCC(=O)[*:2])nn1)[*:1]; isoGln = NC(=O)[C@H](CCC(=O)[*:2])N[*:1]

Key:
[1] = target: T1, E3 ligase activity of Hdm2 (Homo sapiens, UniProt Q00987); assay: E3 ligase activity of Hdm2 on p53, commercial kit; assay type: biochemical; settings: in vitro, Hdm2 around 1 μM (FIG. 4B)
T1 construct: purchased
Procedure: FIGS. 4A-4B: Structure and E3 ligase inhibitory activity of cyclotide MCo-52-2. (FIG. 4A) Structures of the heterodimer formed by the RINGs domain of Hdm2 and HdmX and the complex of cyclotide MCo-52-2 with the RING domain of HdmX, the interacting residues in loops 1 and 5 are shown in light grey (on the left). (FIG. 4B) Inhibitory E3 ligase activity of cyclotide of Hdm2 on p53. The concentration of Hdm2 in the assay was around 1 μM as provided in the commercial kit.
Cyclotide MCo-52-2-cTAT efficiently antagonizes the RING-mediated dimerization of Hdm2/HdmX inhibiting its E3 ligase activity. Applicant developed a cell-based screening of genetically-encoded libraries of cyclotides for Hdm2/HdmX antagonists that has allowed the selection of a bioactive cyclotide, MCo-52-2-cTAT. […] This cyclotide can be efficiently produced by chemical synthesis using solid-phase peptide synthesis (SPPS) or heterologous expression systems (28). Heterologous expression of cyclotides allows introduction of NMR-active isotopes, such as ^13C and ^15N to study the structure of this cyclotide and how interacts with the RING-domains of Hdm2 and HdmX. Using this approach, Applicant solved the structure of cyclotide MCo-52-2 complexed to the RING domain of HdmX in solution (FIG. 4A).

[2] = tested on: p53 pathway in LNCaP cells; assay: Activation of the p53 pathway in LNCaP cells; assay type: cell-based, human
Procedure: Activation of the p53 pathway requires 6 to 8 h after exposing the cells to cyclotide MCo-52-2 for 1 h (FIG. 5B).
Stabilization of p53 could be observed just 8 h after treating the cells with the bioactive cyclotide (FIG. 5B), likely indicating the cyclotide crosses the cellular membrane into the cytosol through an endocytic mechanism as previously described for this type of microproteins (30, 31). […] These transcription factors (ATF3, FOXO3a and RUNX3) and kinases (DYRK2 and HIPK2) have been described to be regulated by the E3 ligase activity of Hdm2/HdmX (6). […] In both cases the peptide was able to inhibit tumor growth by 60% (HCT116-nude mice) and 80% (CT26-Balb/c mice) (FIG. 7).

[3] = Toxicity observation in tumor-bearing mice; assay type: in vivo, mouse; settings: dosed up to 40 mg/kg three times per week
Procedure: Tumor samples were also subjected to SDS-PAGE and analyzed by western blotting for p53, Hdm2, and p21. GAPDH was used as loading control in western blots.
Mice xenografts studies. HCT116 p53^−/− and CT26 xenografts were established by injecting 100 uL suspension of basal RPMI containing 0.5×10^6 cells into the rear right flanks of female nude mice (nu/nu) mice (HCT116) or Balb/C (CT26). […] Compounds were prepared in a D5W at a final volume of 50 μL (peptide) or 100 μL (Nutlin-3). Health checks were performed daily to observe parameters such as body conditioning score, overall appearance and cleanliness, strength of grip, skin color and tone, mobility, gait and activity level as indicators of potential drug related toxicities. Individual weights were recorded thrice weekly, comparing the control and treatment groups as an additional indicator of tolerance of drug treatment as well as providing the average weight for calculation of drug dosing. Tumor size was measured with calipers. Tumor volume was calculated by measuring tumor size in two dimensions and applying those measurements to the calculation V=d^2×D/2, where d and D equal to the smaller and larger of the two measurements, respectively. Mice bearing tumors larger than 2.4 cm^3 were removed from the study, sacrificed and necropsies performed to gather tumor and organ samples for histological analysis. […]

[4] = Immunogenicity, IgG titer ELISA in Balb/c mice; assay type: in vivo, mouse; settings: intraperitoneal 25 mg/kg, 3 times per week for 28 days, listed as MCo-52-2-cTAT
Procedure: The ELISA assay was performed as follows. Micro microplate wells were coated with pmol of streptavidin and then blocked with a 5 solution of nonfat dry milk in PBS. Around of 150 pmol of the corresponding biotinylated antigen (MCo-52-2 or cTAT) were incubated with the streptavidin-coated wells. Murine IgG (m-IgG, 150 pmol) and PBS (no antigen) were used as positive and negative controls in the assay, respectively. Wells coated with antigens MCo-52-2 and cTAT were incubated with serial dilutions of sera from mice untreated and treated with cyclotide MCo-52-2-cTAT. The amount of murine IgG was detected using a goat HRP-conjugated anti-mouse IgG.

T1 sequence (Q00987 whole entry): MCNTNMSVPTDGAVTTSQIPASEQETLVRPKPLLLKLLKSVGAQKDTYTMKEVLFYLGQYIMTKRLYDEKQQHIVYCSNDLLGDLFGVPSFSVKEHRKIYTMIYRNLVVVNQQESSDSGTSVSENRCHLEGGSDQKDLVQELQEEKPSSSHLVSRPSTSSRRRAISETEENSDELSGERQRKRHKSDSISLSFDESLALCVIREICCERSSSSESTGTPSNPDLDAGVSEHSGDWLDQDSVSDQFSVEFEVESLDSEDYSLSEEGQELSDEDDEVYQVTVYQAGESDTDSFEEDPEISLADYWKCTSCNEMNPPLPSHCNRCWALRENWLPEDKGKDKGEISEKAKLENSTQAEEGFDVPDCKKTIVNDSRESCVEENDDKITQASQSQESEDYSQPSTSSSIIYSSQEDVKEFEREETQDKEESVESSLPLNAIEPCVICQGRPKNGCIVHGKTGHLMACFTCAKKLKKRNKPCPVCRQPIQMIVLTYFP

For “I: cyclo(ACICRHDSYCGSGSDGGVCPNLYLLCRRDKDCPG) / II: KK[dR]R[dR]G[dR]K[dK]R[dR][isoGln] (disulfide I:2-I:19, I:4-I:26, I:10-I:32; linker I:30-II:N via X1; lactam II:1-II:C) [Cyclotide 52-2-cTAT]”, the “Inhibition of the E3 ligase activity of Hdm2” value [1] was “specifically inhibit the E3 ligase activity of Hdm2 in vitro in a dose-dependent fashion”, the “Time until activation of the p53 pathway / stabilization of p53” value ([2]; after exposing the cells to cyclotide for 1 h, listed as MCo-52-2-cTAT) was 8 h and the “Activation of the p53 pathway” value ([2]; wild type-p53, listed as MCo-52-2-cTAT) was “activate the p53 pathway in wild type-p53 cancer cells (LNCaP) in a dose-dependent fashion; also recorded: activates the p53 pathway in LNCaP cells in a dose-dependent fashion”. For the same substance, the Toxic effects [3] was “No toxic effects were detected” and the “Immunogenicity, IgG titer against the cyclotide” value [4] was “did not show any significant IgG titer; also recorded: little immunogenicity”.
